Literature values as cited in patent US20080003281A1, “Modified Release Tablet Formulations for Proton Pump Inhibitors” (ASTRAZENECA AB, priority 2004, published 2008).

Test system: gastric acid
Details: 40 mg esomeprazole dose split into 20 mg bid

## COc1ccc2nc([S@@+]([O-])Cc3ncc(C)c(OC)c3C)[nH]c2c1 [esomeprazole, (−)-enantiomer of omeprazole]
  nocturnal gastric acid suppression: significantly improved
